Data published in the supplement of paper PMC9938120.

Experiments:
Assay in all cases: drug sensitivity score (DSS3, normalised partial AUC of % inhibition dose-response) (DSS (score)); higher = more sensitive (stronger inhibition of viability); extreme values may be limits of the assay
FMOC02_1 = patient-derived low-grade serous ovarian cancer cells; conditions: 72 h; library: FO5A; assay format: 2D, 384-well, CellTiter-Glo
Outline: (§1)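 Patient-derived ovarian cancer cells (early passage, under 10) were dispensed onto 384-well flat clear-bottom plates pre-plated with compounds at five concentrations covering a 10,000-fold range. Plates were incubated 72 h at 37 °C, 5% CO2, and viability was read with CellTiter-Glo. Data were processed in Breeze. The drug sensitivity score (DSS3) is a partial area under the percent-inhibition dose-response curve, divided by the log of the upper asymptote; higher means more sensitive.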

FMOC02_2 = patient-derived low-grade serous ovarian cancer cells; conditions: 72 h; library: FO5A; assay format: 2D, 384-well, CellTiter-Glo
Outline: as §1

FMOC02_3 = patient-derived low-grade serous ovarian cancer cells; conditions: 72 h; library: FO5A; assay format: 2D, 384-well, CellTiter-Glo
Outline: as §1

FMOC03 = patient-derived mucinous ovarian cancer cells; conditions: 72 h; library: FO5A; assay format: 2D, 384-well, CellTiter-Glo
Outline: as §1

FMOC04 = patient-derived high-grade serous ovarian cancer cells; conditions: 72 h; library: FO5A; assay format: 2D, 384-well, CellTiter-Glo
Outline: as §1

FMOC06 = patient-derived mucinous ovarian cancer cells; conditions: 72 h; library: FO5A; assay format: 2D, 384-well, CellTiter-Glo
Outline: as §1

FMOC09 = patient-derived high-grade serous ovarian cancer cells; conditions: 72 h; library: FO5A; assay format: 2D, 384-well, CellTiter-Glo
Outline: as §1

FMOC11 = patient-derived high-grade serous ovarian cancer cells; conditions: 72 h; library: FO5A; assay format: 2D, 384-well, CellTiter-Glo
Outline: as §1

FMOC14 = patient-derived high-grade serous ovarian cancer cells; conditions: 72 h; library: FO5A; assay format: 2D, 384-well, CellTiter-Glo
Outline: as §1

FMOC17 = patient-derived low-grade serous ovarian cancer cells; conditions: 72 h; library: FO5A; assay format: 2D, 384-well, CellTiter-Glo
Outline: as §1

FMOC22 = patient-derived mucinous ovarian cancer cells; conditions: 72 h; library: FO5A; assay format: 2D, 384-well, CellTiter-Glo
Outline: as §1

FMOC24 = patient-derived high-grade serous ovarian cancer cells; conditions: 72 h; library: FO5A; assay format: 2D, 384-well, CellTiter-Glo
Outline: as §1

FMOC25_1 = patient-derived low-grade serous ovarian cancer cells; conditions: 72 h; library: FO4B; assay format: 2D, 384-well, CellTiter-Glo
Outline: as §1

FMOC25_2 = patient-derived low-grade serous ovarian cancer cells; conditions: 72 h; library: FO5A; assay format: 2D, 384-well, CellTiter-Glo
Outline: as §1

FMOC27 = patient-derived low-grade serous ovarian cancer cells; conditions: 72 h; library: FO5A; assay format: 2D, 384-well, CellTiter-Glo
Outline: as §1

FMOC28 = patient-derived low-grade serous ovarian cancer cells; conditions: 72 h; library: FO5A; assay format: 2D, 384-well, CellTiter-Glo
Outline: as §1

| SMILES | drug sensitivity score (FMOC02_1) | drug sensitivity score (FMOC02_2) | drug sensitivity score (FMOC02_3) | drug sensitivity score (FMOC03) | drug sensitivity score (FMOC04) | drug sensitivity score (FMOC06) | drug sensitivity score (FMOC09) | drug sensitivity score (FMOC11) | drug sensitivity score (FMOC14) | drug sensitivity score (FMOC17) | drug sensitivity score (FMOC22) | drug sensitivity score (FMOC24) | drug sensitivity score (FMOC25_1) | drug sensitivity score (FMOC25_2) | drug sensitivity score (FMOC27) | drug sensitivity score (FMOC28) |
| --- | --- | --- | --- | --- | --- | --- | --- | --- | --- | --- | --- | --- | --- | --- | --- | --- |
| Cc1c(C(=O)Nc2ccc(N3C[C@@H](C)O[C@@H](C)C3)nc2)cccc1-c1ccc(OC(F)(F)F)cc1 [Sonidegib] | 2.1 | 0.1 | 1.3 | 0 | 0 | 0 | 0.1 | 0.4 | 0 | 3 | 0 | 2.45 | 0 | 0 | 0 | 2.1 |
| COc1cc2c(Oc3ccc4[nH]c(C)cc4c3F)ncnc2cc1OCCCN1CCCC1 [Cediranib] | 1.1 | 0.9 | 0 | 0 | 0 | 0.5 | 0 | 0.2 | 0 | 0.2 | 0 | 1.85 | 1.7 | 0 | 0 | 1 |
| C[C@]12CC[C@@H]3c4ccc(O)cc4C[C@@H](CCCCCCCCC[S+]([O-])CCCC(F)(F)C(F)(F)F)[C@H]3[C@@H]1CC[C@@H]2O (stereo partly drawn) [Fulvestrant] | 0 | 0 | 0 | 0 | 0 | 0 | 0 | 0 | 0 | 0 | 0 | 0 | 0 | 0 | 0 | 0 |
| COc1cc2c(NC3CCN(C(C)C)CC3)nc(N3CCC(F)(F)CC3)nc2cc1OCCCN1CCCC1 [UNC0642] | 4 | 1.1 | 2.3 | 0 | 1.2 | 0.2 | 0.2 | 2.3 | 0.1 | 2.1 | 0.1 | 4.3 | 0 | 0.7 | 0 | 0 |
| Nc1nc(Nc2ccc3c(c2)CC[C@@H](N2CCCC2)CC3)nn1-c1cc2c(nn1)-c1ccccc1CCC2 [BGB324] | 7.2 | 5 | 7.6 | 2.4 | 5.35 | 3.7 | 0.9 | 4.4 | 6.2 | 3.8 | 1.7 | 7.9 | 5.1 | 2.7 | 0.3 | 0.8 |
| CN1CCN(c2nc(C3=C(c4c[nH]c5ccccc45)C(=O)NC3=O)c3ccccc3n2)CC1 [Sotrastaurin] | 3 | 4.3 | 9.9 | 0 | 0 | 0 | 0 | 2.1 | 0 | 3.9 | 0 | 1.85 | 0 | 0 | 0 | 0 |
| CC(C)n1cnc2c(NCCc3ccc(O)cc3)nc(-c3csc4ccccc34)nc21 [StemRegenin 1] | 4.2 | 6 | 4.7 | 4.8 | 1.95 | 4.5 | 0.3 | 1 | 0.6 | 6.8 | 2.7 | 6.15 | 1.6 | 6.1 | 6.9 | 2.9 |
| COc1cc2nccc(Oc3ccc(NC(=O)NC4CC4)c(Cl)c3)c2cc1C(N)=O [Lenvatinib] | 0 | 0 | 0 | 0 | 0 | 0 | 0 | 0 | 0 | 0 | 0 | 0 | 0 | 0.1 | 0 | 0 |
| C=CCc1cccc(/C=N/NC(=O)CN2CCN(Cc3ccccc3)CC2)c1O [PAC-1] | 0 | 3.6 | 0 | 5.6 | 0 | 3.7 | 4.8 | 3.1 | 5 | 1.3 | 3.5 | 1.2 | 0.4 | 2.1 | 0 | 7.1 |
| CO[C@@]12[C@H](COC(N)=O)C3=C(C(=O)C(C)=C(N)C3=O)N1C[C@@H]1N[C@@H]12 [Mitomycin C] | 0 | 0 | 1.9 | 0 | 0 | 0 | 2.7 | 1.6 | 0 | 0 | 0 | 0.45 | 3.6 | 3.7 | 0.1 | 0.8 |
| Nc1nc(F)nc2c1ncn2[C@@H]1O[C@H](CO)[C@@H](O)[C@@H]1O [Fludarabine] | 3 | 0.5 | 2 | 0 | 0 | 0.9 | 0.8 | 0 | 0 | 0 | 1.3 | 0 | 4.3 | 1.9 | 0 | 0 |
| NC1(c2ccc(-c3nc4ccn5c(=O)[nH]nc5c4cc3-c3ccccc3)cc2)CCC1 [MK-2206] | 4.9 | 7.5 | 6.9 | 2.5 | 1.75 | 4.8 | 2.7 | 0.9 | 2 | 4.2 | 0.8 | 1.5 | 4.9 | 3 | 1.5 | 5.5 |
| COc1cc2nccc(Oc3ccc(NC(=O)C4(C(=O)Nc5ccc(F)cc5)CC4)cc3)c2cc1OC [Cabozantinib] | 1 | 0.1 | 0 | 0 | 0 | 0 | 0 | 0 | 0 | 0 | 0 | 4.45 | 0 | 0 | 0.8 | 0 |
| Cc1cc(Nc2nc(N[C@@H](C)c3ncc(F)cn3)ncc2Cl)[nH]n1 [AZD1480] | 0.8 | 0.8 | 1.6 | 0 | 0 | 0 | 0 | 0 | 0 | 0.1 | 0 | 0 | 0 | 0.3 | 0 | 0 |
| CC(O)(CS(=O)(=O)c1ccc(F)cc1)C(=O)Nc1ccc(C#N)c(C(F)(F)F)c1 (stereo not drawn) [Bicalutamide] | 0.1 | 0 | 0 | 0 | 0 | 1.1 | 0 | 0 | 0 | 0.9 | 0 | 0.85 | 0 | 0 | 0 | 0 |
| CC(C)(C)NC(=O)[C@H]1CC[C@H]2[C@@H]3CC[C@H]4NC(=O)C=C[C@]4(C)[C@H]3CC[C@]12C [Finasteride] | 0 | 0 | 0 | 0 | 0 | 0 | 0 | 0 | 0 | 0 | 0 | 1.1 | 0 | 0 | 0 | 0 |
| CCS(=O)(=O)N1CC(CC#N)(n2cc(-c3ncnc4[nH]ccc34)cn2)C1 [Baricitinib] | 0 | 0 | 0 | 0 | 0 | 0 | 0 | 0 | 0 | 0 | 0 | 0.05 | 0 | 0 | 0 | 0 |
| COc1cc([C@@H]2c3cc4c(cc3[C@@H](O[C@@H]3O[C@@H]5CO[C@@H](c6cccs6)O[C@H]5[C@H](O)[C@H]3O)[C@H]3COC(=O)[C@H]23)OCO4)cc(OC)c1O [Teniposide] | 0 | 0 | 0 | 0.5 | 0 | 0 | 0 | 0 | 0 | 0 | 2.5 | 2.75 | 6.4 | 0 | 0 | 0 |
| CN1CCN(C2CCN(C(=O)Nc3cc(Oc4ccc(NC(=O)C5(C(=O)Nc6ccc(F)cc6)CC5)c(F)c4)ccn3)CC2)CC1 [Golvatinib] | 1.2 | 1.2 | 2.2 | 0.5 | 0.7 | 0 | 0 | 0 | 0 | 0.2 | 0 | 3.35 | 0.9 | 4.3 | 0 | 0 |
| C[C@@H](Oc1cc(-c2cnn(C3CCNCC3)c2)cnc1N)c1c(Cl)ccc(F)c1Cl [Crizotinib] | 0.9 | 0.1 | 0 | 0 | 0.05 | 0 | 0 | 0 | 0 | 0 | 0 | 0.65 | 0 | 0.4 | 0 | 0 |
| Cc1ccc(-n2nc(C(C)(C)C)cc2NC(=O)Nc2ccc(OCCN3CCOCC3)c3ccccc23)cc1 [Doramapimod] | 0.1 | 0 | 0 | 0 | 0 | 0 | 0.8 | 2.4 | 0 | 0.4 | 0.3 | 1.85 | 0.8 | 0.1 | 0.1 | 7.1 |
| CCCCCCCCCCCCCCCCCCOP(=O)([O-])OC1CC[N+](C)(C)CC1 [Perifosine] | 0 | 0 | 0 | 0 | 0 | 0.1 | 0 | 0 | 0 | 0 | 0 | 3.35 | 0 | 0.5 | 0 | 0 |
| CN1CC[C@@H](NC(=O)Nc2ccc(C#N)cc2)C[C@@H]1c1nc2ccccc2[nH]1 [Glasdegib] | 0 | 0.4 | 0 | 0 | 0 | 0 | 0 | 0 | 0 | 0 | 0 | 2.75 | 0.1 | 5.2 | 0 | 3.7 |
